# Test results from publication PMC9652372, “Glycolytic flux control by drugging phosphoglycolate phosphatase” (Nature Communications, 2022).
# “And” between values parts separate entries of the source, which are not always exact repeats. Equal entries are not always repeated. Where two headings read alike, the source gives them in different places.
# Key:
# PGP^WT = target: T1, PGP^WT (Mus musculus, UniProt Q8CHP8); assay: Differential scanning fluorimetry (Thermofluor); type: binding
# T1 construct: His6 (N, cleaved yes); made in house; host or cells: Escherichia coli BL21 (DE3), pETM11, co-expressed with groES-groEL-tig
# T1 sequence (Q8CHP8 1-321): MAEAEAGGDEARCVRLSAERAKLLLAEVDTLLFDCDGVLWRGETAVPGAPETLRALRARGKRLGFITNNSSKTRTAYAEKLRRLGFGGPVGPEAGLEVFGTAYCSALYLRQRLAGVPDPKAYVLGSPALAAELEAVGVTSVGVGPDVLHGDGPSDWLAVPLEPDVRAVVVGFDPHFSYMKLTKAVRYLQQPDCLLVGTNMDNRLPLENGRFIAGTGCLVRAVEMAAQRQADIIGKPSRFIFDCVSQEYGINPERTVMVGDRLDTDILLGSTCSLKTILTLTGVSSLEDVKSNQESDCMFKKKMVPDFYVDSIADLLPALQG
# murine PDXP = target: T2, murine PDXP (Mus musculus, UniProt P60487); assay: PDXP activity towards pyridoxal 5'-phosphate (PLP); settings: phosphatase PDXP; species M.m.; substrate PLP; n.s. = no significant inhibition detectable
# T2 sequence (P60487 1-292): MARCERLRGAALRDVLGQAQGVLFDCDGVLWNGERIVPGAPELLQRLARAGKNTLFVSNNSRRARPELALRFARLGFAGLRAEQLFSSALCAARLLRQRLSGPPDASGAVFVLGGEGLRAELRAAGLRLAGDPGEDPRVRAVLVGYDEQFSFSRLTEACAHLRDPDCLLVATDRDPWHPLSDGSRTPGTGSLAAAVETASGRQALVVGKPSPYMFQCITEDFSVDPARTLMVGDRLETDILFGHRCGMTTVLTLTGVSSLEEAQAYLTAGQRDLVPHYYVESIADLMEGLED
# PGP = target: T3, PGP (Mus musculus, UniProt Q8CHP8); assay: Steady state kinetics of PG dephosphorylation in presence of CP1-3
# T3 sequence (Q8CHP8 1-321): T1 sequence (Q8CHP8 1-321)
# physchem = settings: organic solvent or mixture
# murine PGP [1] = target: T4, murine PGP (Mus musculus, UniProt Q8CHP8); assay: biochemical
# T4 sequence (Q8CHP8 1-321): T1 sequence (Q8CHP8 1-321)
# murine PDXP/PGP hybrid = target: T5, murine PDXP/PGP hybrid (Mus musculus, UniProt P60487+Q8CHP8); assay: PG dephosphorylation by PDXP/PGP hybrid protein; type: biochemical
# T5 construct: consisting of the PGP cap domain (amino acids 114–233) fused to the PDXP core domain; His6 (N, cleaved yes); made in house; host or cells: Escherichia coli BL21 (DE3), pETM11
# T5 sequence (P60487 1-100): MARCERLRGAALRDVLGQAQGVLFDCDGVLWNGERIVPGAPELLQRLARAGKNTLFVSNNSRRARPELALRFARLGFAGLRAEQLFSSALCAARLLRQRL
# T5 sequence (Q8CHP8 114-233): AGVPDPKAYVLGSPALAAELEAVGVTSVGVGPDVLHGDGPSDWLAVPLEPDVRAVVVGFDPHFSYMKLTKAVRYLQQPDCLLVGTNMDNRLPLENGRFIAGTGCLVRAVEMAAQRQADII
# T5 sequence (P60487 208-292): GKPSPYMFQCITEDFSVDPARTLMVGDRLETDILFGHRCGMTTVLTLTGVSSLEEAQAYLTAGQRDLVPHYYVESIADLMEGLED
# Description: After centrifugation, cells were resuspended in TNM-2 (100 mM triethanolamine, 500 mM NaCl, 20 mM imidazole, 5 mM MgCl2; pH 7.4). Cleared supernatants were loaded on a HisTrap HP nickel sepharose column in TNM-3 (50 mM triethanolamine, 500 mM NaCl, 20 mM imidazole, 5 mM MgCl2; pH 7.4), and His6-tagged proteins were eluted using a linear gradient of up to 50% TNM-4 (50 mM triethanolamine; 250 mM NaCl; 500 mM imidazole; 5 mM MgCl2; pH 7.4). Peak fractions were pooled, the His6-tag was cleaved, and untagged PDXP or PDXP/PGP was isolated, concentrated and further purified by size exclusion chromatography in TNM-5 (50 mM triethanolamine; 250 mM NaCl; 5 mM MgCl2; pH 7.4). […] Data were analyzed with GraphPad Prism 7.04.
# murine PGP [2] = target: T4, murine PGP; assay: IC50 determination, murine PGP, pNPP dephosphorylation
# [3] = PG dephosphorylation, increasing CP concentrations
smiles,measurement,setting,value
O=C(Nc1ccccc1C(=O)O)c1ccc(Oc2ccc(C(=O)Nc3ccccc3C(=O)O)cc2)cc1 [CP1],TM,PGP^WT; Inhibitor 0.244141 µM,66.6 °C
same,TM,PGP^WT; Inhibitor 0.488281 µM,66.6 °C
same,TM,PGP^WT; Inhibitor 0.976562 µM,66.8 °C
same,TM,PGP^WT; Inhibitor 1.95312 µM,67.0 °C
same,TM,PGP^WT; Inhibitor 3.90625 µM,67.7 °C
same,TM,PGP^WT; Inhibitor 7.8125 µM,68.6 °C
same,TM,PGP^WT; Inhibitor 15.625 µM,69.6 °C
same,TM,PGP^WT; Inhibitor 31.25 µM,70.5 °C
same,TM,PGP^WT; Inhibitor 62.5 µM,71.0 °C
same,TM,PGP^WT; Inhibitor 125 µM,71.0 °C
same,TM,PGP^WT; Inhibitor 250 µM,70.1 °C
same,increase in the maximal PGP melting temperature,PGP^WT; from 66.4 °C (control conditions),4.6 °
same,IC50,murine PDXP,n.s.
same,mode of PGP inhibition,PGP,mixed mode of inhibition
same,PGP activity,"PGP; 0,5 µM CP1, PG 50 µM",1.261 µmol Pi/min/mg and 1.442 µmol Pi/min/mg
same,PGP activity,"PGP; 0,5 µM CP1, PG 100 µM",3.424 µmol Pi/min/mg and 4.325 µmol Pi/min/mg and 3.784 µmol Pi/min/mg
same,PGP activity,"PGP; 0,5 µM CP1, PG 200 µM",7.208 µmol Pi/min/mg and 7.809 µmol Pi/min/mg and 7.689 µmol Pi/min/mg
same,PGP activity,"PGP; 0,5 µM CP1, PG 300 µM",11.5358 µmol Pi/min/mg and 12.2568 µmol Pi/min/mg and 11.716 µmol Pi/min/mg
same,PGP activity,"PGP; 0,5 µM CP1, PG 400 µM",14.0592 µmol Pi/min/mg and 13.5185 µmol Pi/min/mg
same,PGP activity,"PGP; 0,5 µM CP1, PG 500 µM",16.5827 µmol Pi/min/mg and 16.763 µmol Pi/min/mg and 16.2222 µmol Pi/min/mg
same,PGP activity,"PGP; 0,5 µM CP1, PG 600 µM",17.6642 µmol Pi/min/mg and 17.3037 µmol Pi/min/mg and 17.4839 µmol Pi/min/mg
same,PGP activity,"PGP; 0,5 µM CP1, PG 700 µM",19.4667 µmol Pi/min/mg and 20.1876 µmol Pi/min/mg and 19.2864 µmol Pi/min/mg
same,PGP activity,"PGP; 0,5 µM CP1, PG 800 µM",18.0247 µmol Pi/min/mg and 18.9259 µmol Pi/min/mg and 20.0074 µmol Pi/min/mg
same,PGP activity,"PGP; 1 µM CP1, PG 50 µM",1.382 µmol Pi/min/mg and 0.901 µmol Pi/min/mg and 0.7809 µmol Pi/min/mg
same,PGP activity,"PGP; 1 µM CP1, PG 100 µM",2.763 µmol Pi/min/mg and 2.222 µmol Pi/min/mg and 2.403 µmol Pi/min/mg
same,PGP activity,"PGP; 1 µM CP1, PG 200 µM",4.805 µmol Pi/min/mg and 4.745 µmol Pi/min/mg and 4.625 µmol Pi/min/mg
same,PGP activity,"PGP; 1 µM CP1, PG 300 µM",7.751 µmol Pi/min/mg and 7.57 µmol Pi/min/mg and 7.39 µmol Pi/min/mg
same,PGP activity,"PGP; 1 µM CP1, PG 400 µM",9.373 µmol Pi/min/mg and 8.4716 µmol Pi/min/mg and 9.012 µmol Pi/min/mg
same,PGP activity,"PGP; 1 µM CP1, PG 500 µM",11.1753 µmol Pi/min/mg and 10.6346 µmol Pi/min/mg and 10.9951 µmol Pi/min/mg
same,PGP activity,"PGP; 1 µM CP1, PG 600 µM",12.437 µmol Pi/min/mg and 11.8963 µmol Pi/min/mg and 13.158 µmol Pi/min/mg
same,PGP activity,"PGP; 1 µM CP1, PG 700 µM",13.879 µmol Pi/min/mg and 12.7975 µmol Pi/min/mg
same,PGP activity,"PGP; 1 µM CP1, PG 800 µM",14.0592 µmol Pi/min/mg and 13.6988 µmol Pi/min/mg and 12.9778 µmol Pi/min/mg
same,PGP activity,"PGP; 2 µM CP1, PG 50 µM",0.6007 µmol Pi/min/mg and 1.021 µmol Pi/min/mg and 0.5406 µmol Pi/min/mg
same,PGP activity,"PGP; 2 µM CP1, PG 100 µM",1.562 µmol Pi/min/mg and 1.862 µmol Pi/min/mg and 1.201 µmol Pi/min/mg
same,PGP activity,"PGP; 2 µM CP1, PG 200 µM",2.703 µmol Pi/min/mg and 2.643 µmol Pi/min/mg
same,PGP activity,"PGP; 2 µM CP1, PG 300 µM",4.867 µmol Pi/min/mg and 5.227 µmol Pi/min/mg and 5.588 µmol Pi/min/mg
same,PGP activity,"PGP; 2 µM CP1, PG 400 µM",6.309 µmol Pi/min/mg and 6.128 µmol Pi/min/mg and 5.948 µmol Pi/min/mg
same,PGP activity,"PGP; 2 µM CP1, PG 500 µM",7.57 µmol Pi/min/mg and 7.03 µmol Pi/min/mg and 7.21 µmol Pi/min/mg
same,PGP activity,"PGP; 2 µM CP1, PG 600 µM",7.751 µmol Pi/min/mg and 7.931 µmol Pi/min/mg
same,PGP activity,"PGP; 2 µM CP1, PG 700 µM",7.57 µmol Pi/min/mg and 9.012 µmol Pi/min/mg and 8.291 µmol Pi/min/mg
same,PGP activity,"PGP; 2 µM CP1, PG 800 µM",6.849 µmol Pi/min/mg and 8.4716 µmol Pi/min/mg and 8.291 µmol Pi/min/mg
same,vmax,PGP; CP 0.5 µM,39.9 ± 2.9 µmol/min/mg
same,vmax,PGP; CP 1.0 µM,33.6 ± 3.0 µmol/min/mg
same,vmax,PGP; CP 2.0 µM,17.1 ± 2.1 µmol/min/mg
same,effect on vmax (reduction),PGP; [3],~ 3 fold
same,increase of KM,PGP; [3],~ 3 fold
same,solubility,physchem,100 mM
same,IC50,murine PGP [1],370 nM and 400 nM
same,remaining activity at 16 µM,"murine PDXP/PGP hybrid; activity, control = 100, CP log[M] -4.79588",22%
same,remaining activity at 4 µM,"murine PDXP/PGP hybrid; activity, control = 100, CP log[M] -5.39794",59.9%
same,remaining activity at 2 µM,"murine PDXP/PGP hybrid; activity, control = 100, CP log[M] -5.69897",72%
same,remaining activity at 1 µM,"murine PDXP/PGP hybrid; activity, control = 100, CP log[M] -6",77.3%
same,remaining activity at 0.5 µM,"murine PDXP/PGP hybrid; activity, control = 100, CP log[M] -6.30103",82.6%
same,remaining activity at […],"murine PDXP/PGP hybrid; activity, control = 100, CP log[M] -6.60206",92.4%
same,remaining activity at 0.125 µM,"murine PDXP/PGP hybrid; activity, control = 100, CP log[M] -6.90309",90.9%
same,remaining activity at 0.0625 µM,"murine PDXP/PGP hybrid; activity, control = 100, CP log[M] -7.20412",93.9%
same,remaining activity at 0.015625 µM,"murine PDXP/PGP hybrid; activity, control = 100, CP log[M] -7.80618",101%
same,IC50,"murine PDXP/PGP hybrid; phosphatase PDXP/PGP, species M.m., substrate PG",13800 ± 1430 nM
same,IC50,murine PGP [2],770 ± 50 nM
same,remaining activity at 25 µM,"murine PGP [2]; read-out: M.m PGP on pNPP, activity, control = 100.00, CP log[M] -4.60206",3.52%
same,remaining activity at 10 µM,"murine PGP [2]; read-out: M.m PGP on pNPP, activity, control = 100.00, CP log[M] -5",6.83%
same,remaining activity at […],"murine PGP [2]; read-out: M.m PGP on pNPP, activity, control = 100.00, CP log[M] -5.60206",23.4%
same,remaining activity at 1 µM,"murine PGP [2]; read-out: M.m PGP on pNPP, activity, control = 100.00, CP log[M] -6",47.8%
same,remaining activity at 0.5 µM,"murine PGP [2]; read-out: M.m PGP on pNPP, activity, control = 100.00, CP log[M] -6.30103",65%
same,remaining activity at […],"murine PGP [2]; read-out: M.m PGP on pNPP, activity, control = 100.00, CP log[M] -6.60206",85%
same,remaining activity at 0.125 µM,"murine PGP [2]; read-out: M.m PGP on pNPP, activity, control = 100.00, CP log[M] -6.90309",91.3%
same,remaining activity at 0.0625 µM,"murine PGP [2]; read-out: M.m PGP on pNPP, activity, control = 100.00, CP log[M] -7.20412",99.4%
same,remaining activity at 0.03125 µM,"murine PGP [2]; read-out: M.m PGP on pNPP, activity, control = 100.00, CP log[M] -7.50515",100%
